Here are results for one molecule from patent US20260165948A1, “A COMPOSITION FOR SKIN REGENERATION COMPRISING A CULTURE MEDIUM OF TONSIL-DERIVED MESENCHYMAL STEM CELLS, THE ANTIOXIDANT EFFECT OF WHICH IS ENHANCED BY N-ACETYLCYSTEINE (NAC)” (priority 2023, published 2026).

In data set [1] the test system is tonsil-derived human MSCs. Description: Determination of NAC pretreatment concentration (cell viability). The conditions noted are these: NAC 10 mM, pretreatment for 24 hours; FIG. 1. Here is the method:
In order to determine the concentration of NAC for pretreatment of tonsil-derived human MSCs, the tonsil-derived human MSCs were pretreated with NAC prepared in Example 1 at concentrations of 2, 4, 6, 8, 10, 15, and 100 mM for 24 hours, and then cell viability was evaluated.

Data set [2] relates to tonsil-derived human MSCs (hMSC-T, passage 6). Description: Cell viability upon NAC treatment (WST, absorbance at 450 nm) with PYBR challenge. The class given is cell-based. To be noted: NAC pretreatment 10 mM and 20 mM for 24 hours, then PYBR 5, 10, 20 μg/mL for 24 hours; FIG. 3. Here is the method:
In order to evaluate cell viability upon NAC treatment, tonsil-derived human MSCs (hMSC-T, passage 6) were seeded in a culture medium at a density of 1×10^3 cells/well. On the following day, NAC was treated at concentrations of 10 mM and 20 mM for 24 hours. Thereafter, the cells were washed with PBS and the medium was replaced, followed by treatment with PYBR at concentrations of 5, 10, and 20 μg/mL. After 24 hours, the cells were washed three times with PBS and transferred to fresh medium (100 μL) containing 10 μL of WST solution, and incubated at 37° C. for 2 hours in the dark. Absorbance at 450 nm was then measured to evaluate cell viability (FIG. 2). A group not treated with NAC was used as a positive control.

The test system is the same in data set [3]. In words: Antioxidant activity (ROS assay) with PYBR challenge. The conditions noted are these: NAC pretreatment 10 mM and 20 mM for 24 hours, then PYBR 5, 10, 20 μg/mL for 24 hours; FIG. 5. Format: cell-based. Here is the method:
In order to evaluate antioxidant activity upon NAC treatment, tonsil-derived human MSCs (hMSC-T, passage 6) were seeded in a culture medium at a density of 1×10^4 cells/well. On the following day, NAC was treated at concentrations of 10 mM and 20 mM for 24 hours. Thereafter, the cells were washed with PBS and the medium was replaced, followed by treatment with PYBR at concentrations of 5, 10, and 20 μg/mL. After 24 hours, the cells were washed three times with PBS and incubated in 100 μL of ROS working solution at 37° C. for 30 minutes in the dark. Absorbance was then measured at 488/525 nm (FIG. 4). A group not treated with NAC was used as a positive control.

For `CC(=O)NC(CS)C(=O)O` (stereo not drawn) [NAC, 2-acetamido-3-sulfanylpropanoic acid], the “cytotoxicity (cell viability)” value in data set [1] is recorded as “no cytotoxicity was observed”. In data set [2], the “cell viability after PYBR treatment” value is “significantly restored cell viability”. Moreover, the “ROS levels after PYBR treatment” value in data set [3] was “significantly reduced ROS levels”.
